Measurements from patent US20230365566A1, “HETEROCYCLIC AMIDES AND THEIR USE FOR MODULATING SPLICING” (REMIX THERAPEUTICS INC., priority 2020, published 2023).
pIC50: −log10 of the molar value.

Columns and labels:
Assay type in all cases: cell-based
[1] = system: HTT mRNA canonical junction (CJ); experiment: Splicing RT-qPCR assay, decrease of HTT canonical junction (CJ) mRNA; settings: A673 or K562 cells, 24 hours compound treatment, concentration having 50% response in CJ decrease
Description: (§1) Compounds described herein were used to modulate RNA transcript abundance in cells. The expression of a target mRNA was measured by detecting the formation of an exon-exon junction in the canonical transcript (CJ). A compound mediated exon-inclusion event was detected by observing an increase in formation of a new junction with an alternative exon (AJ). Real-time qPCR assays were used to detect these splicing switches and interrogate the potency of various compounds towards different target genes. A high-throughput real time quantitative PCR (RT-qPCR) assay was developed to measure these two isoforms of the mRNA (CJ and AJ) for an exemplary gene, HTT, together with a control housekeeping gene, GAPDH or GUSB or PPIA, used for normalization. Briefly, the A673 or K562 cell line was treated with various compounds described herein (e.g., compounds of Formula (I)). After treatment, the levels of the HTT mRNA targets were determined from each sample of cell lysate by cDNA synthesis followed by qPCR.
(§2) The A673 cell line was cultured in DMEM with 10% FBS. Cells were diluted with full growth media and plated in a 96-well plate (15,000 cells in 100 ul media per well). The plate was incubated at 37° C. with 5% CO2 for 24 hours to allow cells to adhere. An 11-point 3-fold serial dilution of the compounds was made in DMSO then diluted in media in an intermediate plate. Compounds were transferred from the intermediate plate to the cell plate with the top dose at a final concentration of 10 uM in the well. Final DMSO concentration was kept at or below 0.25%. The cell plate was returned to the incubator at 37° C. with 5% CO2 for an additional 24 hours.
(§3) The K562 cell line was cultured in IMDM with 10% FBS. For K562, cells were diluted with full growth media and plated in either a 96-well plate (50,000 cells in 50 uL media per well) or a 384-well plate (8,000-40,000 cells in 45 uL media per well). An 11-point 3-fold serial dilution of the compounds were made in DMSO then diluted in media in an intermediate plate. Compound was transferred from the intermediate plate to the cell plate with the top dose at a final concentration of 10 uM in the well. Final DMSO concentration was kept at or below 0.25%. Final volume was 100 uL for 96-well plate and 50 uL for 384-well plate. The cell plate was then placed in an incubator at 37° C. with 5% CO2 for 24 hours.
(§4) The cells were then gently washed with 50 uL-100 uL cold PBS before proceeding to addition of lysis buffer. 30 uL-50 uL of room temperature lysis buffer with DNAse I (and optionally RNAsin) was added to each well. Cells were shaken/mixed thoroughly at room temperature for 5-10 minutes for lysis to take place and then 3 uL-5 uL of room temperature stop solution was added and wells were shaken/mixed again. After 2-5 minutes, the cell lysate plate was transferred to ice for RT-qPCR reaction setup. The lysates could also be frozen at −80° C. for later use.
(§5) In some cases, a direct lysis buffer was used. An appropriate volume of 3× lysis buffer (10 mM Tris, 150 mM NaCl, 1.5%-2.5% Igepal and 0.1-1 U/uL RNAsin, pH 7.4) was directly added to either K562 or A673 cells in media and mixed by pipetting 3 times. The plates were then incubated at room temperature with shaking/rocking for 20-50 minutes to allow for lysis to take place. After this time, the cell lysate plate was transferred to ice to set up for the RT-qPCR reactions. The lysates could also be frozen at −80° C. for later use.
(§6) To set up 10 uL RT-qPCR reactions, cell lysates were transferred to 384-well qPCR plates containing the master mix according to the table below. The plates were sealed, gently vortexed, and spun down before the run. The volumes were adjusted accordingly in some instances where the reaction was carried in 20 uL. The table below summarizes the components of the RT-qPCR reactions:
(§7) The RT-qPCR reaction was performed using a QuantStudio (ThermoFisher) under the following fast cycling conditions. […]

[2] = system: HTT mRNA alternative junction (AJ); experiment: Splicing RT-qPCR assay, increase of HTT alternative junction (AJ) mRNA; settings: A673 or K562 cells, 24 hours compound treatment, concentration having 50% response in AJ increase
Description: as §1, §2, §3, §4, §5, §6, §7

SMN2 CJ mRNA = experiment: Gene panel canonical junction qPCR assay, SMN2; settings: protocol of Example 42, read-out: SMN2 IC50 (decrease in CJ mRNA levels)
Description: as §1, §2, §3
(§8) The data analysis was performed by first determining the ACt vs the housekeeper gene. This ACt was then normalized against the DMSO control (AACt) and converted to RQ (relative quantification) using the 2^(−ΔΔCt) equation. The RQ were then converted to a percentage response by arbitrarily setting an assay window of 3.5 ΔCt for HTT-CJ and an assay window of 9 ΔCt for HTT-AJ. […] The percentage response was then fitted to the 4 parametric logistic equation to evaluate the concentration dependence of compound treatment. The increase in AJ mRNA is reported as AC50 (compound concentration having 50% response in AJ increase) while the decrease in CJ mRNA levels is reported as IC50 (compound concentration having 50% response in CJ decrease).
(§9) Additional studies were carried out for a larger panel of genes using the protocol provided above. The junction between flanking upstream and downstream exons was used to design canonical junction qPCR assays. At least one of the forward primer, reverse primer or the CY5-labeled 5′ nuclease probe (with 3′ quencher such as ZEN/Iowa Black FQ) was designed to overlap with the exon junction to capture the CJ mRNA transcript. BLAST was used to confirm the specificity of the probeset and parameters such as melting temperature, GC content, amplicon size, and primer dimer formation are considered during their design. Data for the decrease in CJ mRNA levels for three exemplary genes (HTT, SMN2, and Target C) analyzed in this panel are reported as IC50 (compound concentration having 50% response in CJ decrease).

Target C CJ mRNA = experiment: Gene panel canonical junction qPCR assay, Target C; settings: protocol of Example 42, read-out: Target C IC50 (decrease in CJ mRNA levels)
Description: as §1, §2, §3, §8, §9

HTT CJ mRNA = experiment: Gene panel canonical junction qPCR assay, HTT; settings: protocol of Example 42, read-out: HTT IC50 (decrease in CJ mRNA levels)
Description: as §1, §2, §3, §8, §9

Compound | AC50 [1] | AC50 [2] | pIC50 (SMN2 CJ mRNA) | pIC50 (Target C CJ mRNA) | pIC50 (HTT CJ mRNA)
Cc1cn2cc(NC(=O)c3ccc(N4CCNCC4)c4cn(C)nc34)cc(C(F)(F)F)c2n1 [Compound 275] | 1000 to 10000 nM | 1000 to 10000 nM | > 7.00 | < 5.00 | 5.00 to 6.00
Cc1cn2cc(NC(=O)c3ccc(C4CC(C)(C)NC(C)(C)C4)c4cc(C)oc34)cc(F)c2n1 [Compound 271, N-[8-fluoro-2-methylimidazo[1,2-a]pyridin-6-yl]-2-methyl-4-(2,2,6,6-tetramethylpiperidin-4-yl)-1-benzofuran-7-carboxamide] | > 10000 nM | > 10000 nM | 6.00 to 7.00 | < 5.00 | < 5.00
Cc1cn2cc(NC(=O)c3ccc(N4CCNCC4)c4cn(C)nc34)cc(F)c2n1 [Compound 143, N-[8-fluoro-2-methylimidazo[1,2-a]pyridin-6-yl]-2-methyl-4-(piperazin-1-yl) indazole-7-carboxamide] | 100 to 1000 nM | 100 to 1000 nM | > 7.00 | > 7.00 | 6.00 to 7.00
Cc1cn2cc(NC(=O)c3ccc(N4CCNCC4)c4cc(C)oc34)cc(C)c2n1 [Compound 267] | > 10000 nM | 1000 to 10000 nM | > 7.00 | < 5.00 | < 5.00
Cc1cn2cc(NC(=O)c3ccc(N4CCC(NC(C)(C)C)CC4)c4cn(C)nc34)cc(F)c2n1 [Compound 259] | 1000 to 10000 nM | 1000 to 10000 nM | > 7.00 | 5.00 to 6.00 | 5.00 to 6.00
Cc1cn2cc(NC(=O)c3ccc(N4CCN(C)CC4)c4cn(C)nc34)cc(F)c2n1 [Compound 207] | 100 to 1000 nM | 100 to 1000 nM | > 7.00 | 5.00 to 6.00 | 6.00 to 7.00
Cc1cc2c(N3CCNCC3)ccc(C(=O)Nc3cn[nH]c3)c2o1 [Compound 268] | > 10000 nM | > 10000 nM | < 5.00 | < 5.00 | < 5.00
Cc1cn2cc(NC(=O)c3ccc(N4CCNCC4)c4cc(C)oc34)ncc2n1 [Compound 263] | 1000 to 10000 nM | 1000 to 10000 nM | > 7.00 | 5.00 to 6.00 | 5.00 to 6.00
Cc1cn2cc(NC(=O)c3ccc(N4CC(C)(C)NC(C)(C)C4)c4cn(C)nc34)cc(F)c2n1 [Compound 274] | 1000 to 10000 nM | > 10000 nM | > 7.00 | < 5.00 | 5.00 to 6.00
Cc1cn2cc(NC(=O)c3ccc(N4CC5(CNC5)C4)c4cn(C)nc34)cc(F)c2n1 [Compound 242] | 100 to 1000 nM | 1000 to 10000 nM | > 7.00 | 5.00 to 6.00 | 6.00 to 7.00
Cc1cn2cc(NC(=O)c3ccc(N4CCNC(C)C4)c4cn(C)nc34)cc(Cl)c2n1 (centres unmarked) [Compound 277, N-{8-chloro-2-methylimidazo[1,2-a]pyridine-6-yl}-2-methyl-4-(3-methylpiperazin-1-yl)indazole-7-carboxamide] | 100 to 1000 nM | 100 to 1000 nM | > 7.00 | 5.00 to 6.00 | 6.00 to 7.00
Cc1cn2cc(NC(=O)c3ccc(N(C)C4CC(C)(C)NC(C)(C)C4)c4cc(C)oc34)cc(F)c2n1 [Compound 201] | > 10000 nM | > 10000 nM | 5.00 to 6.00 | < 5.00 | < 5.00
Cc1cn2cc(NC(=O)c3ccc(C4CCN(C)CC4)c4cc(C)oc34)cc(F)c2n1 [Compound 256, N-[8-fluoro-2-methylimidazo[1,2-a]pyridin-6-yl]-2-methyl-4-(1-methylpiperidin-4-yl)-1-benzofuran-7-carboxamide] | 1000 to 10000 nM | 1000 to 10000 nM | > 7.00 | < 5.00 | 5.00 to 6.00
Cc1cn2cc(NC(=O)c3ccc(N4CCNCC4)c4nc(C)oc34)cc(F)c2n1 [Compound 140] | 1000 to 10000 nM | 1000 to 10000 nM | 6.00 to 7.00 |  | 5.00 to 6.00
CCC1CN(c2ccc(C(=O)Nc3cc(F)c4nc(C)cn4c3)c3oc(C)cc23)CCN1 (centres unmarked) [Compound 192] |  |  | > 7.00 | 5.00 to 6.00 | 5.00 to 6.00
Cc1cn2cc(NC(=O)c3ccc(N4CCNCC4)c4c[nH]nc34)cc(Cl)c2n1 [Compound 286, N-{8-chloro-2-methylimidazo[1,2-a]pyridin-6-yl}-4-(piperazin-1-yl)-2H-indazole-7-carboxamide] | > 10000 nM | > 10000 nM |  |  | 
Cc1cn2cc(NC(=O)c3ccc(C4CCNCC4)c4cn(C)nc34)cc(Cl)c2n1 [Compound 285, N-{8-chloro-2-methylimidazo[1,2-a]pyridin-6-yl}-2-methyl-4-(piperidin-4-yl) indazole-7-carboxamide] | 100 to 1000 nM | 100 to 1000 nM |  |  | 
Cc1cn2nc(NC(=O)c3ccc(C4CCNCC4)c4cc(C)oc34)cc(C)c2n1 [Compound 118, N-[2,8-dimethylimidazo[1,2-b]pyridazin-6-yl]-2-methyl-4-(piperidin-4-yl)-1-benzofuran-7-carboxamide] | 1000 to 10000 nM | 1000 to 10000 nM |  | < 5.00 | 5.00 to 6.00
Cc1cn2cc(-c3ccc(C(=O)NC4CCNCC4)c4oc(C)cc34)cc(F)c2n1 [Compound 283, 4-{8-fluoro-2-methylimidazo[1,2-a]pyridin-6-yl}-2-methyl-N-(piperidin-4-yl)-1-benzofuran-7-carboxamide] | 1000 to 10000 nM | > 10000 nM |  |  | 
Cc1cn2nc(-c3ccc(C(=O)NC4CCNCC4)c4oc(C)cc34)cc(C)c2n1 [Compound 282, 4-{2,8-dimethylimidazo[1,2-b]pyridazin-6-yl}-2-methyl-N-(piperidin-4-yl)-1-benzofuran-7-carboxamide] | 1000 to 10000 nM | 1000 to 10000 nM |  |  | 
CCn1cc2c(N3CCNCC3)ccc(C(=O)Nc3cc(Cl)c4nc(C)cn4c3)c2n1 [Compound 284, N-{8-chloro-2-methylimidazo[1,2-a]pyridin-6-yl}-2-ethyl-4-(piperazin-1-yl)indazole-7-carboxamide] | 1000 to 10000 nM | > 10000 nM |  |  | 
Cc1cn2cc(NC(=O)c3ccc(N4CC(C)(C)NC(C)(C)C4)c4cc(C)oc34)cc(F)c2n1 [Compound 195] |  |  | > 7.00 | < 5.00 | < 5.00
